Measured values taken from PMC5522529, “Mechanisms of Paradoxical Activation of AMPK by the Kinase Inhibitors SU6656 and Sorafenib” (Cell Chemical Biology, 2017).

Assays:
α2-KD A156T (AT) mutant [1] = molecular target: T1, α2-KD A156T (AT) mutant (Homo sapiens, UniProt P54646, A156T); assay: Inhibition of phosphorylated α2 kinase domain, A156T (AT) mutant; type: biochemical
T1 construct: amplifying residues 1-310 with 5' BamH1 and 3' Xho1 sites; made in house; host or cells: bacteria

[2] = test system: AMPK-related kinases SIK1, SIK2, SIK3, SNARK, MARK2/3 and MARK4; assay: AMPK-related kinase activity in HeLa cells stably expressing LKB1; type: cell-based, human; details: HeLa cells expressing LKB1, 100 μM, 1 hr
Experimental: Figure 1 SU6656 Activates AMPK but Not AMPK-Related Kinases (A) HEK293 cells were incubated with the indicated concentrations of SU6656 or berberine (300 μM) for 1 hr; total AMPK activity was assayed in immunoprecipitates (top; mean ± SEM, n = 4), and phosphorylation of AMPK (Thr172), ACC (Ser80), and Raptor (Ser792) analyzed by western blotting (bottom; n = 2). (B) HEK293 cells were incubated with 100 μM SU6656 (1 hr), AMPK complexes containing α1, α2, β1, and β2 immunoprecipitated using isoform-specific antibodies, and AMPK activity measured (mean ± SEM, n = 4). (C) HeLa cells stably expressing LKB1 ([Fogarty et al., 2010]) were incubated with 100 μM SU6656 for 1 hr, AMPK or individual ARKs immunoprecipitated, and kinase assays carried out (antibodies that distinguish MARK2/MARK3 were not available, so they were assayed together). Results are means ± SEM (n = 2). In all panels, asterisks indicate significant differences from controls without SU6656. *p < 0.05, **p < 0.01, ****p < 0.0001. […]

[3] = molecular target: α2 kinase domain (α2-KD, residues 1–310) (Homo sapiens, UniProt P54646); assay: biochemical
Sequence of α2 kinase domain (α2-KD, residues 1–310) (P54646 1-310): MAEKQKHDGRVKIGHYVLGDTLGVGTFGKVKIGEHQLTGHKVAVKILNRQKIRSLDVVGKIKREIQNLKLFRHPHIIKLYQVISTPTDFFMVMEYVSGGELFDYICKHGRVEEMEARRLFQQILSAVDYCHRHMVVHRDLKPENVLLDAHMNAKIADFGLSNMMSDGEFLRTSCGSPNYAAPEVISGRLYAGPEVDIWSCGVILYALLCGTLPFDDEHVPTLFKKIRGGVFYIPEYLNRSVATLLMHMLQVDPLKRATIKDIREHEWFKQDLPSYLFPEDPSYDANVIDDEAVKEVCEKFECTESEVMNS

α2-KD = molecular target: T2, α2-KD (Homo sapiens, UniProt P54646); assay: Activation and phosphorylation of unphosphorylated α2-KD (WT) by LKB1; type: biochemical
T2 construct: amplifying residues 1-310 with 5' BamH1 and 3' Xho1 sites; made in house; host or cells: bacteria
T2 sequence (P54646 1-310): as above
Text: (§1) (B) Effect of ATP concentration on kinase activity of α2-KD in the presence of increasing concentrations of SU6656. Results (mean, n = 2) were fitted to the equation Y= (Vmax × X)/(Km × (1 + I/Ki) + X), where Y is the activity, X is the ATP concentration, I is the concentration of SU6656, and Ki is the inhibitory constant for SU6656. […] (D and E) Effect of increasing concentrations of SU6656 on activity (D) and Thr172 phosphorylation (E) induced by LKB1 with unphosphorylated α2-KD (WT/AT mutant). Results in (D) are mean ± SEM (n = 3); and were fitted to same equation as Figure 4C. […] See also Figure S3. (F) Effect of AMP (2 mM) and SU6656 on inactivation of AMPK by PP2Cα in the presence of 5 mM ATP. […] (G) Effects of AMP or SU6656 on activation (top) and Thr172 phosphorylation (bottom) by LKB1 of AMPK-γ1 complexes expressed in HeLa cells. FLAG-tagged AMPK-γ1, either wild-type (WT) or R299G mutant (RG), was expressed in HeLa cells and AMPK complexes precipitated using anti-FLAG antibody. The complexes (which have low basal phosphorylation due to lack of LKB1 in HeLa cells) were incubated with or without a limiting amount of LKB1, AMP (200 μM) or SU6656 (3 μM) for 10 min and AMPK activity determined.
(§2) We next used unphosphorylated α2-KD and tested the effect of SU6656 on its activation and phosphorylation by LKB1.

α2-KD A156T (AT) mutant [4] = molecular target: T1, α2-KD A156T (AT) mutant; assay: Activation and phosphorylation of unphosphorylated α2-KD AT mutant by LKB1; type: biochemical
Text: as §1, §2

[5] = molecular target: T3, human AMPK-α2 Y436F mutant (Homo sapiens, UniProt P54646, Y436F); assay: AMPK activity of FLAG-tagged Y436F AMPK-α2 expressed in HEK293 cells; type: cell-based; details: SU6656 100 μM, phenformin 10 mM, A23187 10 μM, 1 hr
T3 construct: expressed in transfected cells; host or cells: HEK293 (transient transfection)
T3 sequence (P54646 whole entry Y436F): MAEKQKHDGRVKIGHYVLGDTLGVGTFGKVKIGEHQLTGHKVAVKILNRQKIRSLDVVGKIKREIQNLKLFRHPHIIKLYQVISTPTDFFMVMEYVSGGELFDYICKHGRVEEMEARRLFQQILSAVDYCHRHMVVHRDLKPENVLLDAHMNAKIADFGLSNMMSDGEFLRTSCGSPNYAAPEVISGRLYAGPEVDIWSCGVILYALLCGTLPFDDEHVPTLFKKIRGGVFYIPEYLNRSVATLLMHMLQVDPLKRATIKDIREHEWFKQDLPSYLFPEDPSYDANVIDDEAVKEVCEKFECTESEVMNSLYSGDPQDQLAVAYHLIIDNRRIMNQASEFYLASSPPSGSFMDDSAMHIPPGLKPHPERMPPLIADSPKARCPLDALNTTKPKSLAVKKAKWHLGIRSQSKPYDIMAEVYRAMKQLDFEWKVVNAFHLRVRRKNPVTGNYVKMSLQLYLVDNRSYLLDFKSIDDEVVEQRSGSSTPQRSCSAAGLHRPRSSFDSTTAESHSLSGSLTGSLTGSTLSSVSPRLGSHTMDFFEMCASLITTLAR
T3 sequence (P54619 whole entry partner): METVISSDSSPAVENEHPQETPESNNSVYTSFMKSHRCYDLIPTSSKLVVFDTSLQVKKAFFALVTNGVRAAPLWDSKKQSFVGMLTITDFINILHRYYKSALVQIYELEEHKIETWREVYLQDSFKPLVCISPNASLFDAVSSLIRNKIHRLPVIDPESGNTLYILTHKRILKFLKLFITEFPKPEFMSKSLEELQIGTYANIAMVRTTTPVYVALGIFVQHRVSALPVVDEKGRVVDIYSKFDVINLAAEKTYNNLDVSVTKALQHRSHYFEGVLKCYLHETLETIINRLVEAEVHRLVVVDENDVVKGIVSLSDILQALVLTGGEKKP
Experimental: Top: AMPK activity (mean ± SEM, n = 4); bottom: western blots showing phosphorylation of Thr172 on AMPK, and of ERK1/2, in cells treated with DMSO (control), SU6656 (100 μM), or PP2 (100 nM) (n = 2). (B) As (A), but in SYF cells. (C) HeLa cells were transfected with DNAs encoding GFP alone, or GFP fused to WT, Y261F/Y365F (FF), or Y36F/Y261F/Y365F (FFF) mutants of LKB1; cells were treated with increasing concentrations of SU6656 for 1 hr and AMPK activity determined (mean ± SEM, n = 4). See also Figure S1. (D) HEK293 cells were transfected with DNAs encoding FLAG-tagged AMPK-α2 with or without a Y436F mutation. Cells were incubated with DMSO (control), 100 μM SU6656, 10 mM phenformin, or 10 μM A23187 for 1 hr; AMPK complexes were immunoprecipitated using anti-FLAG antibody and assayed. The top panels show kinase activities (mean ± SD, n = 3); the bottom panels show blots from the same experiment (n = 2). In all panels, asterisks indicate significant differences from DMSO controls; in (D), there were no significant differences between the WT and Y463F mutant. **p < 0.01, ****p < 0.0001.

T1 sequence (P54646 1-310 A156T): as the sequence (P54646 1-310) above, with A156T counted along it

- IC50 (α2-KD A156T (AT) mutant [1]; AT mutant α2-KD phosphorylated using CaMKK2, read-out: IC50 for inhibition of catalytic activity): 1700 ± 300 nM
- fold less potent inhibition with AT mutant than WT (α2-KD A156T (AT) mutant [1]; AT versus WT α2-KD): ~10 fold
- IC50 [3]: 220 ± 20 nM
- Ki [3]: 170 nM
- activation of α2-KD by LKB1 (α2-KD; SU6656 up to 10 μM): 1.9 ± 0.2 fold
- Kd (α2-KD; read-out: half-maximal effect on α2-KD activation by LKB1): 200 ± 20 nM
- EC50 (α2-KD A156T (AT) mutant [4]): 70 nM
- activation of α2-KD by LKB1 (α2-KD A156T (AT) mutant [4]): 1.07 fold
- AMPK activation response with Y436F mutation [5]: unaffected by the Y436F mutation
SMILES: CN(C)S(=O)(=O)c1ccc2c(c1)/C(=C/c1cc3c([nH]1)CCCC3)C(=O)N2 [SU6656]
- activity of AMPK-related kinases (ARKs) [2]: none of the ARKs assayed were activated
